Results as given in ChEMBL document CHEMBL3286294, “Buthionine sulfoximine diverts the melanogenesis pathway toward the production of more soluble and degradable pigments” (Bioorg Med Chem Lett, 2014).
The source made the active and inactive calls.

Experiments:
[1] = biological target: T1, Tyrosinase (Agaricus bisporus) (UniProt O42713); assay: Induction of pheomelanogenesis assessed as mushroom tyrosinase-mediated simulation of pheomelanogenesis by measuring oxidation of L-DOPA at 4.5 to 184.4 mM after 48 hrs by Vis-spectrophotometer analysis in presence of 0.65 to 3.2 mM of glutathione
T1 sequence (whole entry): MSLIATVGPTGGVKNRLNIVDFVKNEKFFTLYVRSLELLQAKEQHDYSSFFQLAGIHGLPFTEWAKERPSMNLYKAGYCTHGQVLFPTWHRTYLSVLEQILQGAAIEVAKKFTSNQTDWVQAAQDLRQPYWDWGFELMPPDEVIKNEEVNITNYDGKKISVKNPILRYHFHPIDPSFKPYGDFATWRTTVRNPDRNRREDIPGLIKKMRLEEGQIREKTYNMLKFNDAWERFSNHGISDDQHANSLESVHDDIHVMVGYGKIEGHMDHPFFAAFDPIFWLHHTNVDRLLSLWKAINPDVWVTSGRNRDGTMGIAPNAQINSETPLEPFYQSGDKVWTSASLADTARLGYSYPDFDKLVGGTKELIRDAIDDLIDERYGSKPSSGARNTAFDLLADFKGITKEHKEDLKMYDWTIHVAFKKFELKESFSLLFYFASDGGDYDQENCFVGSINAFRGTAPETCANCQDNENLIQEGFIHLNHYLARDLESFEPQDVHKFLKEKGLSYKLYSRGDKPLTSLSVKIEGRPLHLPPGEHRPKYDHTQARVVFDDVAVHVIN

[2] = biological target: T1, Tyrosinase (Agaricus bisporus); assay: Induction of eumelanogenesis assessed as mushroom tyrosinase-mediated simulation of eumelanogenesis by measuring oxidation of L-DOPA at 4.5 to 184.4 mM after 48 hrs by Vis-spectrophotometer analysis in absence of glutathione
[3] = biological target: T1, Tyrosinase (Agaricus bisporus); assay: Inhibition of mushroom tyrosinase-mediated simulation of pheomelanogenesis assessed as oxidation of L-DOPA at 4.5 to 184.4 mM after 48 hrs by Vis-spectrophotometer analysis in presence of 16.3 to 81.3 mM of glutathione
[4] = biological target: T1, Tyrosinase (Agaricus bisporus); assay: Induction of pheomelanogenesis assessed as mushroom tyrosinase-mediated simulation of pheomelanogenesis by measuring oxidation of L-DOPA at 4.5 to 184.4 mM after 48 hrs by Vis-spectrophotometer analysis in presence of 0.65 to 3.2 mM of glutathione and H2O2
[5] = biological target: T1, Tyrosinase (Agaricus bisporus); assay: Induction of eumelanogenesis assessed as mushroom tyrosinase-mediated simulation of eumelanogenesis by measuring oxidation of L-DOPA at 4.5 to 184.4 mM after 48 hrs by Vis-spectrophotometer analysis in absence of glutathione and presence of H2O2

CCCCS(=N)(=O)CCC(N)C(=O)O (racemic)
active: Activity [1] | Activity [2] | inhibition [3] | Activity [4] | Activity [5]
